From ChEMBL document CHEMBL1136303, “4-(2-pyridyl)piperazine-1-carboxamides: potent vanilloid receptor 1 antagonists” (Bioorg Med Chem Lett, 2003)

Experiments:
[1] = molecular target: T1, Transient receptor potential cation channel subfamily V member 1 (Rattus norvegicus, UniProt O35433); test: Vanilloid receptor subtype 1 antagonist activity based on its ability to block capsaicin-induced (CAP) activation of the rat VR1 channel in a HEK293 cell line; assay type: functional
[2] = molecular target: T1, Transient receptor potential cation channel subfamily V member 1; test: Vanilloid receptor subtype 1 antagonist activity based on its ability to block low pH-induced activation of the rat VR1 channel in a HEK293 cell line; assay type: functional
[3] = Plasma clearance in rat by iv administration at a dose of 3 mg/kg; assay type: ADME, organism-based; design: dose 3 mg/kg, route intravenous
[4] = Oral bioavailability in rat by po administration at a dose of 40 mg/kg; assay type: ADME, organism-based; conditions: in vivo
[5] = Half life period in rat by iv administration at a dose of 3 mg/kg; assay type: ADME, organism-based; design: dose 3 mg/kg, route intravenous; conditions: in vivo
[6] = Cmax in rat by po administration at a dose of 40 mg/kg; assay type: ADME, organism-based; design: dose 40 mg/kg, route oral; conditions: in vivo
[7] = Tmax in rat by po administration at a dose of 40 mg/kg; assay type: ADME, organism-based; design: dose 40 mg/kg, route oral; conditions: in vivo
[8] = Pharmacokinetic (PK) parameter Vz in rat; assay type: ADME, organism-based; conditions: in vivo, read-out: Vz

T1 sequence (O35433 whole entry): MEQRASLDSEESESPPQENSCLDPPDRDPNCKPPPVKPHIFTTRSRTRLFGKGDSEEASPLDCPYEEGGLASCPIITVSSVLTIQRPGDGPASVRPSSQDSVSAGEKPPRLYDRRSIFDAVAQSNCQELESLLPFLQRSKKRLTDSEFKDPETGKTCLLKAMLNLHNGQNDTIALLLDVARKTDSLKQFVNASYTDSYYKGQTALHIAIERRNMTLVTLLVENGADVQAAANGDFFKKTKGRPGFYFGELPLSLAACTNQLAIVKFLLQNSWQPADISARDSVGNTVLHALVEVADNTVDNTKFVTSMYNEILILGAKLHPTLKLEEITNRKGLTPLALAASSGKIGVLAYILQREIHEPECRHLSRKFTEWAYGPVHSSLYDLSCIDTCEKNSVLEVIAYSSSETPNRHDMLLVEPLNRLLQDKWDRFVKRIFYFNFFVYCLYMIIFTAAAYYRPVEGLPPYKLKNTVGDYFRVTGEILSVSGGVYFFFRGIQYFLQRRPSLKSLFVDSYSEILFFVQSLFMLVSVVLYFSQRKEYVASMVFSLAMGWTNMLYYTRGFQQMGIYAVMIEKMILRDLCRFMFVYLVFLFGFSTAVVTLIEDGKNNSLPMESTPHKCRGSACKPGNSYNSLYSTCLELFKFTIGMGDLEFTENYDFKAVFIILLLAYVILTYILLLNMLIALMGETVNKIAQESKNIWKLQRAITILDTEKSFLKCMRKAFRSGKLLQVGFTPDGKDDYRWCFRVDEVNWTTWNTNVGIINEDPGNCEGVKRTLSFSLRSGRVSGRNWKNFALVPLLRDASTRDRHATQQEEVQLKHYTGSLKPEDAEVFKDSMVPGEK

Compound	IC50 [1]	IC50 [2]	further results
CCC(C)c1ccc(NC(=O)N2CCN(c3ncccc3Cl)CC2)cc1 (stereo not drawn)	17.4 nM	23.3 nM	
O=C(Nc1ccc(OC(F)(F)F)cc1)N1CCN(c2ncccc2Cl)CC1	93.2 nM	261 nM	
CC(C)(C)c1ccc(NC(=S)N2CCN(c3ncccc3C(F)(F)F)CC2)cc1	246 nM	441 nM	
O=C(Nc1ccc([N+](=O)[O-])cc1)N1CCN(c2ncccc2Cl)CC1	1110 nM	> 25000 nM	
CCCc1ccc(NC(=O)N2CCN(c3ncccc3Cl)CC2)cc1	41.6 nM	73 nM	
Oc1cc2c(cc1O)CN(C(=S)NCCc1ccc(Cl)cc1)CCC2 [CAPSAZEPINE]	58 nM		
CC(C)c1ccc(NC(=O)N2CCN(c3ncccc3C#N)CC2)cc1	287 nM	> 25000 nM	
CCc1ccc(NC(=O)N2CCN(c3ncccc3Cl)CC2)cc1	107 nM	56.6 nM	
CCc1cccnc1N1CCN(C(=O)Nc2ccc(C(C)C)cc2)CC1	230 nM	828 nM	
Cc1cccnc1N1CCN(C(=O)Nc2ccc(C(C)C)cc2)CC1	25.3 nM	173 nM	
CC(C)c1ccc(NC(=O)N2CCN(c3ncccc3C=O)CC2)cc1	201 nM	1400 nM	
CC(C)c1ccc(NC(=O)N2CCN(c3ncccc3C(F)(F)F)CC2)cc1	57.5 nM		
CC(C)c1ccc(NC(=O)N2CCN(c3ncccc3C(F)F)CC2)cc1	27.7 nM	61.5 nM	
CC(C)c1ccc(NC(=O)N2CCN(c3ncccc3Br)CC2)cc1	4.6 nM	27.1 nM	
CC(C)(C)[C@H]1CC[C@H](NC(=O)N2CCN(c3ncccc3Cl)CC2)CC1	3.9 nM	17.2 nM	
CC(C)c1ccc(NC(=O)N2CCN(c3ncccc3Cl)CC2)cc1	11.5 nM		
CC(C)c1ccc(NC(=O)N2CCN(c3ncccc3[N+](=O)[O-])CC2)cc1	190 nM	245 nM	
CC(C)(C)c1ccc(NC(=O)N2CCN(c3ncccc3Cl)CC2)cc1			clearance [3]: 76.7 mL/min/kg; bioavailability [4]: 15.1%; half-life [5]: 54 min; Cmax [6]: 1120 ng/mL; Tmax [7]: 30 min; Vd [8]: 5.8 L/kg
O=C(Nc1ccc2ccccc2c1)N1CCN(c2ncccc2Cl)CC1	479 nM	278 nM	
O=C(Nc1ccc(Oc2ccccc2)cc1)N1CCN(c2ncccc2C(F)(F)F)CC1	258 nM	916 nM	
CC(C)c1ccc(NC(=O)N2CCN(c3ncccc3I)CC2)cc1	56.7 nM	77.4 nM	
CCCCc1ccc(NC(=O)N2CCN(c3ncccc3Cl)CC2)cc1	117 nM	203 nM	

The next lines start with results.

IC50 [1]	IC50 [2]	Compound	further results
29.8 nM	91.7 nM	O=C(Nc1ccc(C2CCCCC2)cc1)N1CCN(c2ncccc2Cl)CC1	
491 nM	1010 nM	O=C(Nc1ccc(Br)cc1)N1CCN(c2ncccc2Cl)CC1	
655 nM		O=C(Nc1ccc(Cl)cc1)N1CCN(c2ncccc2Cl)CC1	
11.3 nM	57.7 nM	CC(C)(C)c1ccc(NC(=O)N2CCN(c3ncccc3C(F)(F)F)CC2)cc1	
285 nM	310 nM	O=C(Nc1ccc(I)cc1)N1CCN(c2ncccc2Cl)CC1	
63.5 nM	81.4 nM	O=C(Nc1ccc(C(F)(F)F)cc1)N1CCN(c2ncccc2Cl)CC1	
556 nM		Cc1ccc(NC(=O)N2CCN(c3ncccc3C(F)(F)F)CC2)cc1	
1360 nM	5180 nM	CCCCc1ccc(NC(=O)N2CCN(c3ncccc3C(F)(F)F)CC2)cc1	
111 nM	121 nM	CCc1ccc(NC(=O)N2CCN(c3ncccc3C(F)(F)F)CC2)cc1	
872 nM	575 nM	CC(C)c1ccc(NC(=S)N2CCN(c3ncccc3C(F)(F)F)CC2)cc1	
